Measured values reported in patent US11400019B2, “Sustained release drug delivery systems with reduced impurities and related methods” (DURECT CORPORATION, priority 2020, dated 2022).
Where “and” joins values, the source holds several entries; their conditions need not be identical. Equal entries are not always repeated.

Key:
Format in all cases: physicochemical
[1] = Peroxide content of SAIB and benzyl alcohol versus bupivacaine N-oxide
Description: The peroxide content for several lots of sucrose acetate isobutyrate were determined by potentiometric titration involving iodometric titration. The bupivacaine N-oxide levels in samples of Formulation A were determined using HPLC with UV detection.
The bupivacaine N-oxide data in Table 10.1 are for the longest available stability time points for each set of samples.
All of the benzyl alcohol compositions had peroxide values of less than […]. The peroxide value can be converted to peroxide content, expressed as hydrogen peroxide, by multiplying PV by 17. […] The maximum contribution to peroxide content from benzyl alcohol is 85 ppm divided by 3, or 28 ppm.

[2] = 2,6-dimethylaniline standard in clear, amber and red glassware, HPLC with electrochemical detection
Description: A series of experiments was conducted examining the effects of amber and red colored glassware on the stability of the 2,6-dimethylaniline reference standard, using electrochemical detection, at a concentration of 3 ng/mL in an aqueous buffer/methanol solution.
In Experiment 1, the 2,6-dimethylaniline was prepared at a concentration of 3 ng/mL in a clear, colorless glass 100 mL volumetric flask. Aliquots were transferred into clear HPLC glass vials, and assayed against external standards. The 3 injections of the 2,6-dimethylaniline were consistently near 3 ng/mL.
In Experiment 2, the 2,6-dimethylaniline solution at 3 ng/mL prepared in a clear, colorless glass 100 mL volumetric flask was transferred to amber HPLC vials.
An aliquot was transferred into a clear HPLC glass vial, and assayed against external standards. The sample injection had the same 2,6-dimethylaniline concentration value as that in Experiment 1.
In Experiment 4, the 2,6-dimethylaniline solution at 3 ng/mL prepared in the red colored glass 100 mL volumetric flask coated with RAY-SORB® was transferred to an amber HPLC vial.

[3] = In vitro cumulative release of bupivacaine, USP Apparatus II dissolution, f1/f2 comparison; settings: pre-heated in oven at 225° C. for 4 hours
Description: The in vitro cumulative release of bupivacaine from formulations was determined as follows.
The bupivacaine formulations, other than the heat-stressed formulation, were prepared by dissolving appropriate amounts of bupivacaine in appropriate amounts of benzyl alcohol (BA), adding an appropriate amount of sucrose acetate isobutyrate (SAIB), and stirring not less than 45 minutes at about 35° C. For the heat-stressed SAIB formulation, the same process was followed except the SAIB was pre-heated in an oven at 225° C. for 4 hours before use. A portion of the pre-heated SAIB was tested and found to have 98% SAIB remaining.
Dissolution was measured using a USP Apparatus II. Approximately 0.5 mL of each formulation was loaded via cannula and syringed into 900 mL±5 mL of 37±0.5° C. dissolution media (phosphate buffer at pH 7.4±0.05 with 0.03% sodium lauryl sulfate). The USP Apparatus II was set at 50 RPM, and samples were collected at 1, 4, 8, 12, 18, 24, 36, 48, and 72 hours. The number of replicates (N) per sample per time point varied as described above. The collected samples were assayed for bupivacaine content by HPLC.
The dissolution profile comparisons were conducted using a difference factor (f1) and a similarity factor (f2) approach (FDA Guidance for Industry “Dissolution Testing of Immediate Release Solid Oral Dosage Forms” August 1997). […]

[4] = Metal content by ICP-MS
Description: Sucrose acetate isobutyrate was tested for metal content as follows. The sample was prepared with a 0.1 g weighed portion mixed with 2 mL nitric acid and 0.5 mL hydrochloric acid for 1 hour on a block digester set at 110° C. After cooling, 0.5 mL of 30% hydrogen peroxide was added, and the digestion resumed for 30 minutes (the material appeared dissolved). After cooling, internal standard solution was added and dilution with purified water to 20 g produced a solution for ICP-MS analysis.
Formulation A was compounded using steel compounding tanks. Silicone tubing was used to transfer Formulation A. Formulation A was filled into glass vials, which were then sealed with fluorocarbon-coated stoppers.
Formulation A was tested for metal content as follows. The sample was prepared with a 0.2 g weighed portion mixed with 2 mL nitric acid, 1 mL hydrochloric acid, and 1 mL hydrofluoric acid, then digested in a closed-vessel microwave system (the material appeared dissolved). After cooling, internal standard solution was added and dilution with purified water to 50 g produced a solution for ICP-MS analysis.

Compound: OCc1ccccc1 [benzyl alcohol]
- effective peroxide contribution to formation of bupivacaine N-oxide ([1]; 8.5 ppm divided by 3): < 2.8 ppm
- peroxide content, expressed as hydrogen peroxide ([1]; PV multiplied by 17): < 8.5 ppm
- peroxide value (PV) ([1]; all lots used for Formulation A samples): less than 0.5

Compound: Cc1cccc(C)c1N [2,6-dimethylaniline]
- Observed Concentration of Standard ([2]; Experiment 1: clear flask, clear HPLC vial, nominal 3 ng/mL): ~3 ng/mL
- Observed Concentration of Standard ([2]; Experiment 1: clear flask, clear HPLC vial, nominal 3 ng/mL, listed as 2,6-Dimethlylaniline Standard): 3.0 ng/mL and 3.1 ng/mL
- Observed Concentration of Standard ([2]; Experiment 2: clear flask, amber HPLC vial, listed as 2,6-Dimethlylaniline Standard): 24.5 ng/mL and 28.4 ng/mL and 34.6 ng/mL and 38.1 ng/mL
- Observed Concentration of Standard ([2]; Experiment 3: red RAY-SORB flask, clear HPLC vial): 3.0 ng/mL
- 2,6-dimethylaniline content, times higher than Experiments 1 and 3 ([2]; Experiment 4, amber HPLC vial): approximately 5 times
- Observed Concentration of Standard ([2]; Experiment 4: red flask, amber HPLC vial): 14.9 ng/mL

Compound: sucrose acetate isobutyrate [SAIB]
- peroxide in SAIB corresponding to 0.8% bupivacaine N-oxide ([1]; linear regression, FIG. 2): 232.5 ppm
- peroxide in SAIB corresponding to 1.0% bupivacaine N-oxide ([1]; linear regression, FIG. 2): 296.4 ppm
- SAIB remaining [3]: 98%
- Gold content ([4]; detection limit 0.02): 0.4 ppm
- Tin content ([4]; detection limit 0.04): 0.06 ppm
- Iron content ([4]; detection limit 1): 2 ppm
